Test results: PubChem BioAssay AID1981 (Southern Research Specialized Biocontainment Screening …, 2009)
Where “and” joins values, the source holds several entries; their conditions need not be identical. Equal entries are not always repeated.

Each compound was assayed on S. Typhimurium PhoP-promoter GFP reporter counterscreen, fluorescence, 4 h (assay: S. Typhimurium GFP fluorescence dose response in modified counterscreen for PhoP regulon inhibitor project (AID 1981)).

| SMILES | IC50 |
| --- | --- |
| CNC(=S)N1CCN(c2c(F)cc3c(=O)c(C(=O)O)cn(C4CC4)c3c2OC)CC1C (stereo not given) | 15.2 µM |
| O=C1C=C(N2CCOCC2)c2ccccc2C1=O | 69.9 µM |
| COc1c(N2CCN(C(=S)Nc3ccccc3F)C(C)C2)c(F)cc2c(=O)c(C(=O)O)cn(C3CC3)c12 (stereo not given) | 2.31 µM |
| COc1ccc(C(C[N+](=O)[O-])C2(c3ccc(OC)c(OC)c3)C(=O)c3ccccc3C2=O)cc1 (stereo not given) | 23.6 µM |
| O=C(NNC(=O)c1cnccn1)c1ccc(Cl)cc1 | 89.5 µM |
| Cc1cc(C)c2ccc(N)nc2c1O | 49.9 µM |
| Cc1[nH]n(-c2ccccc2)c(=O)c1/C=N/Nc1nncc(-c2ccccc2)n1 | 22.1 µM |
| CCCCCCCCCCOC(=O)Cn1c(COc2ccccc2)[n+](C)c2ccccc21 | 64.3 µM |
| CN(C)c1ccc(O)c2c1CC1CC3[C@@H](N(C)C)C(=O)C(C(N)=O)=C(O)[C@]3(O)C(=O)C1=C2O (stereo not given in full) | 1.54 µM |
| CCCCOc1ccc(CSC(=N)N)cc1[N+](=O)[O-] | 131 µM |
| C/C(=N\Nc1nc2ccccc2[nH]1)c1ccccn1 | 29.3 µM |
| OC(c1cc(C(F)(F)F)nc2c(Cl)cc(Cl)cc12)C1CCCCN1 (stereo not given) | 133 µM |
| CCCCCCCNC(=O)C1(CC2CC(c3ccc(Cl)cc3)=NO2)CCNCC1 (stereo not given) | 47.8 µM |
| O=C(N/N=C/c1cc([N+](=O)[O-])ccc1O)c1ccncc1 | 101 µM |
| C=C1c2c(Cl)ccc(O)c2C(O)=C2C(=O)[C@]3(O)C(O)=C(C(N)=O)C(=O)[C@@H](N(C)C)[C@@H]3[C@@H](O)C12 (stereo not given in full) | 0.94 µM |
| C(=N\Nc1ccccn1)/c1cccnc1 | 62.2 µM |
| CCn1cc(C(=O)O)c(=O)c2cc3c(cc21)OCO3 | 67.5 µM |
| O=C(N/N=C\C=C\c1ccc([N+](=O)[O-])o1)c1cccs1 | 34.8 µM |
| CC(C)Oc1ccc(Cc2cnc(N)nc2N)cc1 | 54.2 µM |
| CC(C(=O)c1ccc(-c2ccccc2)cc1)[n+]1cccc(NC(=O)c2ccccc2)c1 (stereo not given) | 106 µM |
| C[C@H]1c2cccc(O)c2C(O)=C2C(=O)C3(O)C(O)=C(C(N)=O)C(=O)[C@@H](N(C)C)[C@@H]3[C@@H](O)[C@@H]21 (stereo not given in full) | 1.83 µM |
| Cc1ccc(C(=O)O)cc1N=Cc1cc(Br)cc(Br)c1O | 105 µM |
| NC(N)=NN=C1CCCCCCCCCCC1 | 81.7 µM |
| CCCCNC(=O)c1cn(CC)c2cc(N3CCN(C)CC3)c(F)cc2c1=O | 63.6 µM |
| CCCCCCCCCn1c2c(c(=N)c3c1CCC3)CCC2 | 84.5 µM |
| C#CCOCCOCCOCCNc1nc(N2CCN(C(=O)CCCCCCCCCCNC(=O)[C@H]([C@@H](C)CC)n3cc(CCCCN=C(N)N)nn3)CC2)nc(N2CCN(C(=O)CCCCCCCCCCNC(=O)[C@H](CCCN=C(N)N)n3cc(C[C@@H](C)CC)nn3)CC2)n1 | 30.6 µM |
| CCCC(=O)NC(c1ccc(C)cc1)c1ccc2cccnc2c1O (stereo not given) | 54.7 µM |
| O=[N+]([O-])c1ccc(O)c2ncccc12 | 2.7 µM |

| SMILES | IC50 |
| --- | --- |
| O=C(Nc1nc(-c2ccccn2)cs1)c1ccc(Cl)s1 | 27.8 µM |
| C#CCOCCOCCOCCNc1nc(N2CCN(C(=O)CCCCCCCCCCNC(=O)[C@H](CO)n3cc(CCCCCN)nn3)CC2)nc(N2CCN(C(=O)CCCCCCCCCCNC(=O)[C@H](CCCN=C(N)N)n3cc(C[C@@H](C)CC)nn3)CC2)n1 | 90.3 µM |
| Oc1cccc(C=NCc2ccccc2)c1O | 109 µM |
| COc1ccc(C(C[N+](=O)[O-])c2c(-c3ccccc3)cc3ccccn23)cc1 (stereo not given) | 56.9 µM |
| Cc1cc(C(C)(C)CC(C)(C)C)ccc1OCCOCC[N+](C)(C)Cc1ccccc1 | 34.6 µM |
| O=C(N/N=C/c1cc(O)ccc1Br)c1cccnc1 | 43.5 µM |
| O=C(NC(CO)C(O)c1ccc([N+](=O)[O-])cc1)C(Cl)Cl (stereo not given) | 9.17 µM |
| CCCCCCCCCCOC(=O)Cn1c(COc2ccc(OC)cc2)[n+](C)c2ccccc21 | 36.5 µM and 36.1 µM |
| Cc1cc(/C=N/n2c(COc3ccccc3)nc3ccccc3c2=O)c(O)c([N+](=O)[O-])c1 | 61.4 µM |
| CCCCCCCCCCOC(=O)C[N+](C)(C)C/C=C(/C)Cl | 83.3 µM |
| Cc1ccc(Nc2c3c(nc4ccccc24)CCC3)cc1 | 146 µM |
| COc1c(N2CCN(C(=S)NC3CC4CCC3C4)C(C)C2)c(F)cc2c(=O)c(C(=O)O)cn(C3CC3)c12 (stereo not given) | 5.38 µM |
| CCn1cc(C(=O)O)c(=O)c2cc(F)c(N3CCN(C(=S)NC(=O)c4cccc(C)c4)CC3)cc21 | 25.4 µM |
| FC(F)(F)c1ccc2c(c1)N(CCCN1CCN(CCCl)CC1)c1ccccc1S2 | 146 µM |
| Nc1cccc2nc3ccccc3cc12 | 43.4 µM |
| CC1CCc2c(N3CCC(O)CC3)c(F)cc3c(=O)c(C(=O)O)cn1c23 (stereo not given) | 6.56 µM |
| CC(=O)NC(c1ccc(Cl)cc1Cl)c1ccc2cccnc2c1O (stereo not given) | 40.2 µM |
| CC(C)(C)/C(O)=C/c1nc2cc(Cl)ccc2oc1=O | 55 µM |
| CO/N=C(/C(=O)N[C@@H]1C(=O)N2C(C(=O)O)=CCS[C@H]12)c1cnc(N)s1 | 23.6 µM |
| O=C(Cc1ccccc1)Nc1cccc(N2C(=O)C=CC2=O)c1 | 142 µM |
| NC(Cc1cc(O)c(O)cc1O)C(=O)O (stereo not given) | 93 µM |
| CCCCCCCSc1cc(OC)c(CCNC)cc1OC | 71.8 µM |
| CCCCCNCC(=O)Nc1cccc(C(=O)Nc2cccc(C(F)(F)F)c2)c1 | 135 µM |
| CN(C)c1ccc(/C=C/c2ccc3ccccc3[n+]2C)cc1 | 26.9 µM |
| COc1ccccc1CNCC(O)Cn1c2ccccc2c2ccccc21 (stereo not given) | 88.7 µM |
| CCN(CC(=O)NC(C)(C)C)C(=O)COc1c(Cl)cc(Cl)c2ccc(C)nc12 | 136 µM |
| CC(C(=O)NC1C=CS(=O)(=O)C1)N1C(=O)/C(=C/c2ccc(Cl)cc2)SC1=S (stereo not given) | 141 µM |
